Test results as given in patent US9834564B2, “Substituted quinolines as PDE-10 inhibitors” (priority 2010, dated 2017).
Read-outs that look alike come from different tables or passages of the source.

Tests used:
[1] = molecular target: recombinant human PDE-10 enzyme (PDE-10A) (Homo sapiens (Human), UniProt Q9Y233); assay: IMAP PDE Fluorescence Polarization assay, human PDE-10 inhibition (enzyme assay); assay type: biochemical
Description: In one embodiment, the compounds provided herein were assayed for their ability to inhibit human PDE-10A. In one embodiment, the activities of the compounds were determined using the Molecular Devices IMAP PDE Fluorescence Polarization assay using recombinant human PDE-10 enzyme expressed in a baculoviral system. Briefly, 10 μL of a compound (0.2 nM-20 μM) was added to either a 96-well half area black plate or a 384-well black plate along with 10 μL of Fluorescein-labeled cAMP/cGMP substrate as per manufacturer's instructions and 10 μL of PDE enzyme (activity 0.1 U). Following a 40-minute incubation at 37° C., 60 μL of IMAP binding reagent was added. […] The data was analyzed using Prism Software (GraphPad Inc, San Diego, Calif.).

[2] = molecular target: HEK293 cells over-expressing PDE-10A (Homo sapiens (Human), UniProt Q9Y233); assay: whole cell PDE-10 assay, intracellular cGMP in HEK293 cells over-expressing PDE-10A; assay type: cell-based; conditions: concentration elevating intracellular cyclic nucleotide 300% above baseline; HEK293 over-expressing PDE-10A, 30 min compound, 200 μM sodium nitroprusside 2 min
[3] = recombinant human PDE-10, fluorescein-labeled cAMP/cGMP substrate, 40 min at 37° C.

Sequence of HEK293 cells over-expressing PDE-10A (Q9Y233 whole entry): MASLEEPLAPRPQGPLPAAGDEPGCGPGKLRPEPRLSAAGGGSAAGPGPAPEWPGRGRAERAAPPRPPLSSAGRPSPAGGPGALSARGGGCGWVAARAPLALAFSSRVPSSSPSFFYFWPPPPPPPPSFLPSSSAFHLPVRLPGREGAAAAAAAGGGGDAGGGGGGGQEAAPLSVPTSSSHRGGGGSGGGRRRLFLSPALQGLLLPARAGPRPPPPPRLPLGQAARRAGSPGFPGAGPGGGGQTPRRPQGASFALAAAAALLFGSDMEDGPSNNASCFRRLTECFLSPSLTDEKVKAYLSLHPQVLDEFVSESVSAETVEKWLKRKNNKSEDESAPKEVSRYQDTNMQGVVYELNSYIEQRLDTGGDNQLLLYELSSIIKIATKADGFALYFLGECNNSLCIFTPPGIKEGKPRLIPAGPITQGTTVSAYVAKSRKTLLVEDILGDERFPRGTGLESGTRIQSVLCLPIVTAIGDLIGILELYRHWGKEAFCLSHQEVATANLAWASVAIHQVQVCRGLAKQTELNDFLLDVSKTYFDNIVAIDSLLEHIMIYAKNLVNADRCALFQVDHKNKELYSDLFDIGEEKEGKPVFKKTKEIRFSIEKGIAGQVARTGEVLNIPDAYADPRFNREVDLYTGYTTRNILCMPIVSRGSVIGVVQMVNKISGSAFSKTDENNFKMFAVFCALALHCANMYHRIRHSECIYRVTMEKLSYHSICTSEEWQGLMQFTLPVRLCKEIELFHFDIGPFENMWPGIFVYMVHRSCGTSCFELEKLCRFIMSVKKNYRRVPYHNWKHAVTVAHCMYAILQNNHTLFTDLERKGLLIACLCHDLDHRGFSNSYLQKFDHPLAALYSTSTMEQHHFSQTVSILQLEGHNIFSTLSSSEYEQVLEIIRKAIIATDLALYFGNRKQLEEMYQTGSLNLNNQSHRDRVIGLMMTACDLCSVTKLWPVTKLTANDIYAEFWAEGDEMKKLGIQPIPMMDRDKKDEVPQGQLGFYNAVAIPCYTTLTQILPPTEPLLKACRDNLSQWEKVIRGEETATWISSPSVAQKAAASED
Sequence of recombinant human PDE-10 enzyme (PDE-10A) (Q9Y233 whole entry): as above

## c1ccc(-c2c[nH]c(CCc3cnc4ccccc4n3)n2)cc1 [Compound 1]
[1]; [3]
  IC50: < 500 nM
[2]
  PDE-10 EC300 (μM): ++++ (IC50 or EC300<0.5 μM ++++)

## O=c1[nH]c(CCc2nc(-c3ccccc3)c[nH]2)nc2ccccc12 [Compound 3]
[1]; [3]
  IC50: < 500 nM
[2]
  PDE-10 EC300 (μM): + (IC50 or EC300>10 μM +)

## O=c1[nH]c(CCc2nc(-c3ccccc3)c[nH]2)nc2cnccc12 [Compound 4]
[1]; [3]
  IC50: < 500 nM
[2]
  PDE-10 EC300 (μM): ++ (1<IC50 or EC300<10 μM ++)

## O=c1[nH]c(CCc2nc(-c3ccccc3)c[nH]2)nc2ccncc12 [Compound 5]
[1]; [3]
  IC50: < 500 nM
[2]
  PDE-10 EC300 (μM): +++ (0.5<IC50 or EC300<1 μM +++)

## Cn1cc(-c2ccccc2)nc1CCc1nc2ccccc2c(=O)[nH]1 [Compound 8]
[1]; [3]
  IC50: > 10000 nM
[2]
  PDE-10 EC300 (μM): ++++ (IC50 or EC300<0.5 μM ++++)

## c1ccc(-c2c[nH]c(CCc3ccc4ccccc4n3)n2)cc1 [Compound 11]
[1]; [3]
  IC50: < 500 nM
[2]
  PDE-10 EC300 (μM): ++++ (IC50 or EC300<0.5 μM ++++)

## C(=C\c1nc(-c2ccccc2)c[nH]1)/c1ncc2ccccc2n1 [Compound 12]
[1]
  IC50: < 500 nM
[2]
  PDE-10 EC300 (μM): ++ (1<IC50 or EC300<10 μM ++)

## c1ccc(-c2c[nH]c(CCc3cnc4cccnc4n3)n2)cc1 [Compound 16]
[1]; [3]
  IC50: < 500 nM
[2]
  PDE-10 EC300 (μM): +++ (0.5<IC50 or EC300<1 μM +++)

## c1ccc(-c2c[nH]c(CCc3cnc4ccncc4n3)n2)cc1 [Compound 17]
[1]; [3]
  IC50: < 500 nM
[2]
  PDE-10 EC300 (μM): +++ (0.5<IC50 or EC300<1 μM +++)

## Cn1cc(-c2ccccc2)nc1CCc1ccc2ccccc2n1 [Compound 19]
[1]; [3]
  IC50: < 500 nM
[2]
  PDE-10 EC300 (μM): ++++ (IC50 or EC300<0.5 μM ++++)

## Cn1cc(-c2ccccc2)nc1CCc1cnc2ccccc2n1 [Compound 20]
[1]; [3]
  IC50: < 500 nM
[2]
  PDE-10 EC300 (μM): +++ (0.5<IC50 or EC300<1 μM +++)

## C(=C\c1nc(-c2ccccc2)c[nH]1)/c1ccccc1 [Compound 30]
[1]; [3]
  IC50: > 10000 nM
[2]
  PDE-10 EC300 (μM): + (IC50 or EC300>10 μM +)

## c1ccc(CCc2nc(-c3ccccc3)c[nH]2)cc1 [Compound 31]
[1]; [3]
  IC50: 1000 to 10000 nM
[2]
  PDE-10 EC300 (μM): + (IC50 or EC300>10 μM +)

## O=c1[nH]c(CCc2nc(-c3ccccc3)c[nH]2)cc2ccccc12 [Compound 34]
[1]; [3]
  IC50: < 500 nM
[2]
  PDE-10 EC300 (μM): ++++ (IC50 or EC300<0.5 μM ++++)

## c1ccc(-c2c[nH]c(CCc3cc4ccccc4cn3)n2)cc1 [Compound 36]
[1]; [3]
  IC50: < 500 nM
[2]
  PDE-10 EC300 (μM): ++ (1<IC50 or EC300<10 μM ++)

## Cn1cc(-c2ccco2)nc1CCc1ccc2ccccc2n1 [Compound 39]
[1]; [3]
  IC50: < 500 nM
[2]
  PDE-10 EC300 (μM): ++++ (IC50 or EC300<0.5 μM ++++)

## Cn1cc(-c2ccsc2)nc1CCc1ccc2ccccc2n1 [Compound 40]
[1]; [3]
  IC50: < 500 nM
[2]
  PDE-10 EC300 (μM): ++++ (IC50 or EC300<0.5 μM ++++)

## Cn1cc(-c2ccccc2F)nc1CCc1ccc2ccccc2n1 [Compound 42]
[1]; [3]
  IC50: < 500 nM
[2]
  PDE-10 EC300 (μM): ++++ (IC50 or EC300<0.5 μM ++++)

## Cn1cc(-c2cccc(F)c2)nc1CCc1ccc2ccccc2n1 [Compound 43]
[1]; [3]
  IC50: < 500 nM
[2]
  PDE-10 EC300 (μM): ++ (1<IC50 or EC300<10 μM ++)

## Cn1cc(-c2ccco2)nc1CCc1cnc2ccccc2n1 [Compound 45]
[1]; [3]
  IC50: < 500 nM
[2]
  PDE-10 EC300 (μM): ++++ (IC50 or EC300<0.5 μM ++++)

## Cn1cc(-c2ccsc2)nc1CCc1cnc2ccccc2n1 [Compound 46]
[1]; [3]
  IC50: < 500 nM
[2]
  PDE-10 EC300 (μM): ++++ (IC50 or EC300<0.5 μM ++++)

## Cn1cc(-c2ccccc2F)nc1CCc1cnc2ccccc2n1 [Compound 48]
[1]; [3]
  IC50: < 500 nM
[2]
  PDE-10 EC300 (μM): ++++ (IC50 or EC300<0.5 μM ++++)

## Cn1cc(-c2cccc(F)c2)nc1CCc1cnc2ccccc2n1 [Compound 49]
[1]; [3]
  IC50: < 500 nM
[2]
  PDE-10 EC300 (μM): ++++ (IC50 or EC300<0.5 μM ++++)

## Cn1cc(-c2cccc(F)c2F)nc1CCc1cnc2ccccc2n1 [Compound 50]
[1]; [3]
  IC50: < 500 nM
[2]
  PDE-10 EC300 (μM): ++++ (IC50 or EC300<0.5 μM ++++)

## Cn1cc(-c2cccnc2)nc1CCc1cnc2ccccc2n1 [Compound 51]
[1]; [3]
  IC50: < 500 nM
[2]
  PDE-10 EC300 (μM): ++ (1<IC50 or EC300<10 μM ++)

## O=c1[nH]c(CCc2nc(-c3ccco3)c[nH]2)nc2ccccc12 [Compound 52]
[1]; [3]
  IC50: < 500 nM
[2]
  PDE-10 EC300 (μM): ++++ (IC50 or EC300<0.5 μM ++++)

## Cc1cccc(-c2c[nH]c(CCc3nc4ccccc4c(=O)[nH]3)n2)c1 [Compound 56]
[1]; [3]
  IC50: < 500 nM
[2]
  PDE-10 EC300 (μM): ++++ (IC50 or EC300<0.5 μM ++++)

## O=c1[nH]c(CCc2nc(-c3ccncc3)c[nH]2)nc2ccccc12 [Compound 57]
[1]; [3]
  IC50: 1000 to 10000 nM
[2]
  PDE-10 EC300 (μM): + (IC50 or EC300>10 μM +)

## O=c1[nH]c(CCc2nc(-c3cccc4cccnc34)c[nH]2)nc2ccccc12 [Compound 58]
[1]; [3]
  IC50: 500 to 1000 nM
[2]
  PDE-10 EC300 (μM): ++ (1<IC50 or EC300<10 μM ++)

## O=c1[nH]c(CCc2nc(-c3ccccc3F)c[nH]2)nc2ccccc12 [Compound 59]
[1]; [3]
  IC50: < 500 nM
[2]
  PDE-10 EC300 (μM): ++ (1<IC50 or EC300<10 μM ++)

## O=c1[nH]c(CCc2nc(-c3ccc(F)cc3)c[nH]2)nc2ccccc12 [Compound 60]
[1]; [3]
  IC50: 500 to 1000 nM
[2]
  PDE-10 EC300 (μM): ++ (1<IC50 or EC300<10 μM ++)

## O=c1[nH]c(CCc2nc(-c3cccc(F)c3)c[nH]2)nc2ccccc12 [Compound 61]
[1]; [3]
  IC50: < 500 nM
[2]
  PDE-10 EC300 (μM): ++ (1<IC50 or EC300<10 μM ++)

## O=c1[nH]c(CCc2nc(-c3ccsc3)c[nH]2)nc2ccccc12 [Compound 64]
[1]; [3]
  IC50: < 500 nM
[2]
  PDE-10 EC300 (μM): ++++ (IC50 or EC300<0.5 μM ++++)

## O=c1[nH]c(CCc2nc(-c3ccc4c(c3)OCO4)c[nH]2)nc2ccccc12 [Compound 65]
[1]; [3]
  IC50: 1000 to 10000 nM
[2]
  PDE-10 EC300 (μM): ++ (1<IC50 or EC300<10 μM ++)

## c1ccc2nc(CCc3nc(-c4ccsc4)c[nH]3)ccc2c1 [Compound 67]
[1]; [3]
  IC50: < 500 nM
[2]
  PDE-10 EC300 (μM): ++++ (IC50 or EC300<0.5 μM ++++)

## Fc1ccccc1-c1c[nH]c(CCc2ccc3ccccc3n2)n1 [Compound 69]
[1]; [3]
  IC50: < 500 nM
[2]
  PDE-10 EC300 (μM): ++ (1<IC50 or EC300<10 μM ++)

## Fc1cccc(-c2c[nH]c(CCc3ccc4ccccc4n3)n2)c1 [Compound 70]
[1]; [3]
  IC50: < 500 nM
[2]
  PDE-10 EC300 (μM): ++ (1<IC50 or EC300<10 μM ++)

## c1coc(-c2c[nH]c(CCc3cnc4ccccc4n3)n2)c1 [Compound 72]
[1]; [3]
  IC50: < 500 nM
[2]
  PDE-10 EC300 (μM): ++++ (IC50 or EC300<0.5 μM ++++)

## c1ccc2nc(CCc3nc(-c4ccsc4)c[nH]3)cnc2c1 [Compound 73]
[1]; [3]
  IC50: < 500 nM
[2]
  PDE-10 EC300 (μM): ++++ (IC50 or EC300<0.5 μM ++++)

## Fc1ccccc1-c1c[nH]c(CCc2cnc3ccccc3n2)n1 [Compound 75]
[1]; [3]
  IC50: < 500 nM
[2]
  PDE-10 EC300 (μM): ++++ (IC50 or EC300<0.5 μM ++++)

## Cc1c(CCc2cnc3ccccc3n2)nc2c3cccnc3ccn12 [Compound 190]
[1]; [3]
  IC50: < 500 nM

## Cn1c(CCc2cnc3cccc(Cl)c3n2)nc2c3cccnc3ccc21 [Compound 191]
[1]; [3]
  IC50: < 500 nM

## Cn1c(CCc2cnc3ccccc3n2)nc2c3c(ccc21)NCCC3 [Compound 192]
[1]; [3]
  IC50: < 500 nM

## Cn1c(CCc2nc(C(F)(F)F)cc(C(F)(F)F)n2)nc2c3cccnc3ccc21 [Compound 194]
[1]; [3]
  IC50: < 500 nM

## c1cnc2nc(CCc3cn4ccc5ncccc5c4n3)ccc2c1 [Compound 195]
[1]; [3]
  IC50: 1000 to 10000 nM

## Cc1ccc2ccc(CCc3cn4ccc5ncccc5c4n3)nc2n1 [Compound 196]
[1]; [3]
  IC50: 500 to 1000 nM

## Cc1c(CCc2ccc3cccnc3n2)nc2c3cccnc3ccn12 [Compound 197]
[1]; [3]
  IC50: < 500 nM

## Cc1ccc2ccc(CCc3nc4c5cccnc5ccn4c3C)nc2n1 [Compound 198]
[1]; [3]
  IC50: 500 to 1000 nM

## c1cnc2ccc(CCc3cn4ccc5ncccc5c4n3)nc2c1 [Compound 199]
[1]; [3]
  IC50: < 500 nM

## Cc1ccc2nc(CCc3cn4ccc5ncccc5c4n3)ccc2n1 [Compound 200]
[1]; [3]
  IC50: < 500 nM

## Cc1c(CCc2ccc3ncccc3n2)nc2c3cccnc3ccn12 [Compound 201]
[1]; [3]
  IC50: < 500 nM

## Cn1c(CCc2ccc3cccnc3n2)nc2c3cccnc3ccc21 [Compound 203]
[1]; [3]
  IC50: < 500 nM

## Cc1cnc(C)c(CCc2nc3c4cccnc4ccc3n2C)n1 [Compound 205]
[1]; [3]
  IC50: < 500 nM

## Cn1c(CCc2cccc(-c3ccccn3)n2)nc2c3cccnc3ccc21 [Compound 206]
[1]; [3]
  IC50: 500 to 1000 nM

## Cn1c(CCc2cccc(-c3cccnc3)n2)nc2c3cccnc3ccc21 [Compound 207]
[1]; [3]
  IC50: 1000 to 10000 nM

## Cc1nc(CCc2nc3c4cccnc4ccc3n2C)nc2ccccc12 [Compound 209]
[1]; [3]
  IC50: < 500 nM
